Several values for one entry are separate records, joined by “and”; a condition that tells them apart may be missing. Identical values can stand only once.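 Dose response: 5 concentrations. Exposure: 48 h. Format: 96-well plates. Endpoint: linear interpolation; highest concentration if not reached. GI50 is the concentration that inhibits growth by half. The concentration for full growth arrest is given as TGI.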

The source of these data is PubChem BioAssay (NCI).

Experiment in all cases: inhibition of tumour cell growth, NCI panel, 48 h
Test [1] relates to MOLT-4 leukemia.
Test [2] deals with OVCAR-5 ovarian.
The test system of test [3] is A498 renal.
Test [4] relates to SR leukemia.
In test [5] the test system is SF-268 CNS.
Test [6] has as its system PC-3 prostate.
Test [7] relates to HOP-62 NSCLC.
The test system of test [8] is A549 NSCLC.
Test [9] concerns HL-60(TB) leukemia.
Test [10] deals with NCI-H460 lung.

With `COc1ccc(NC(=O)c2ccc(NC3=C(Cl)C(=O)N(Cc4ccccc4)C3=O)cc2)c(OC)c1`, the GI50 in test [1] was 9.94 µM; in test [2], 49.3 µM; in [3], 61.1 µM; in test [4], 1.39 µM; in [5] it was 29.1 µM; in test [6], 25.7 µM. For the same compound, the GI50 is 19 µM in test [7], 45.4 µM in [8], 13.2 µM in [9] and 38.4 µM in test [10]. Also, the TGI in test [1] was 36.2 µM; in test [2], more than 100 µM; in test [3], more than 100 µM; in test [4], 3.98 µM; in test [5], more than 100 µM; in test [6], more than 100 µM. The TGI is 53.7 µM in test [7], more than 100 µM in [8], 31.1 µM in test [9] and more than 100 µM in [10].
With `C/C=C(\C)C(=O)O[C@H]1C=CC(=O)O[C@H]1COC(=O)[C@H](C)O`, the GI50 is 1.95 µM in test [1]; 18.8 µM in test [2]; 15.7 µM in test [3]; 2.2 µM in test [4]; 4.32 µM in [5]; 11 µM in [6]. Moreover, the GI50 in test [7] is 19.8 µM; in test [8], 15.5 µM; in [9], 2.34 µM; in test [10], 10.3 µM. The TGI in [1] stood at 5.22 µM; in [2], 39 µM; in test [3], 31.4 µM; in [4] it was 13.4 µM; in test [5], 17.6 µM; in test [6] it was 28.9 µM. Also, the TGI in [7] came to 35.4 µM; in test [8] it was 35.3 µM; in test [9], 6.9 µM; in [10], 29.1 µM.
`NCCSC(c1ccccc1)(c1ccccc1)c1ccccc1`: the GI50 in [1] is 2.3 µM; in test [2] it was 1.92 µM; in [3], 1.03 µM; in test [4] it was 0.34 µM; in test [5] it was 0.966 µM; in test [6], 1.36 µM. For the same compound, the GI50 was 2.43 µM in test [7], 0.742 µM in [8], 0.879 µM in test [9] and 1.31 µM in test [10]. The TGI in test [1] is 7.1 µM; in test [2], 6.95 µM; in [3], 8.39 µM; in test [4] it was 1.82 µM; in [5], 11.2 µM; in test [6], 11.5 µM. Also, the TGI in [7] turned out to be 14.2 µM; in test [8], 6.03 µM; in [9], 3.03 µM; in [10], 4.01 µM.
Regarding `Cc1sc2c(c1C)C(c1ccc(Cl)cc1)=N[C@@H](CC(=O)NCCCN1CCN(C)CC1)c1nnc(C)n1-2`, the GI50 in [1] was 22.2 µM; in test [2], 1.99 µM; in test [3], 0.271 µM; in [4] it was 0.108 µM; in test [5], 30.3 µM; in [6], 1.05 µM. The GI50 was 0.352 µM in test [7], 3.22 µM in test [8], 0.0583 µM in test [9] and more than 63.2 µM in test [10]. Besides, the TGI was more than 100 µM in test [1]; more than 100 µM in test [2]; 7.78 µM in [3]; more than 100 µM in [4]; more than 100 µM in test [5]; more than 100 µM in [6]. In addition, the TGI is more than 100 µM in test [7], more than 100 µM in test [8], 5.7 µM in test [9] and more than 100 µM in [10].
As for `CCC1(c2ccc(N)cc2)CCC(=O)NC1=O` (configuration not stated), the TGI in test [1] is more than 3750 µM; in test [2], more than 5000 µM; in test [3], more than 5000 µM; in [4], more than 5000 µM; in test [5], more than 5000 µM; in [6], 4550 µM. The TGI was more than 1580 µM in [7], more than 5000 µM in [8], 3630 µM in test [9] and more than 5000 µM in test [10].
As to `COc1ccc2nc3cccc([N+](=O)[O-])c3c(NC(C)CN(C)C)c2c1` (configuration not stated), the GI50 in [1] is 1.23 µM; in [2], 1.73 µM; in [3], 2.09 µM; in test [4], 2.16 µM; in [5] it was 2.64 µM; in test [7], 1.18 µM. Moreover, the GI50 is 3.48 µM in test [8], 2.67 µM in test [9] and 0.51 µM in test [10]. Further, the TGI was 4.13 µM in test [1]; 5.21 µM in test [2]; 4.59 µM in test [3]; 11.9 µM in test [5]; 6.85 µM in test [6]; 2.96 µM in test [7]. The TGI in [8] came to 8.93 µM; in test [10], 3.73 µM.
For the compound `CN(C)Cc1c(C(=O)NCCOc2ccc(C(=O)NO)cc2)oc2ccccc12`, the GI50 in test [1] is 0.114 µM; in test [2], 0.115 µM; in [3], 0.126 µM; in [4], 0.203 µM; in test [5] it was 0.464 µM; in [6], 0.214 µM. Also, the GI50 is 0.247 µM in test [7], 0.299 µM in test [8], 0.303 µM in test [9] and 0.221 µM in test [10]. Further, the TGI in [1] was determined as 1.53 µM; in test [2], 1.3 µM; in test [3] it was 0.411 µM; in [4], 12.4 µM; in test [5] it was 6.02 µM; in test [6], 5.06 µM. In addition, the TGI was 12.1 µM in test [7], 1.98 µM in [8], 2.19 µM in [9] and more than 100 µM in [10].
Consider `O=C1CC(CC(OCc2ccccc2)C(OCc2ccccc2)C(COCc2ccccc2)OCc2ccccc2)CC(=O)N1` (configuration not stated), for which the TGI in test [1] is > 100 µM and 35.3 µM; in test [2], > 100 µM and 80.8 µM; in [3], > 100 µM and 89 µM; in test [4], > 100 µM and 65.4 µM; in test [5], > 100 µM and 65.3 µM; in test [6], > 100 µM and 38.5 µM. Also, the TGI in test [7] was > 100 µM and 73.1 µM; in test [8] it was more than 100 µM; in [9], > 100 µM and 25.4 µM; in test [10], > 100 µM and 97.7 µM. The GI50 is > 100 µM and 24.9 µM in [2]; > 100 µM and 21.7 µM in test [3]; > 100 µM and 11.2 µM in test [5]; > 100 µM and 11.3 µM in test [6]; > 100 µM and 26.8 µM in [7].
Take `NC(=O)c1cc(Br)ccc1NC(=O)/C=C/c1ccccc1`: the GI50 was 4.02 µM in test [1]; 10.3 µM in test [2]; 1.66 µM in [3]; 0.823 µM in test [4]; 2.85 µM in test [5]; 1.19 µM in test [6]. In addition, the GI50 was 5.47 µM in test [7], 2.39 µM in test [8], 0.876 µM in [9] and 1.42 µM in test [10]. The TGI in test [1] was more than 53.9 µM; in test [2], more than 100 µM; in [3], 11.7 µM; in [4], more than 100 µM; in [5], more than 39.4 µM; in test [6] it was more than 100 µM. The TGI in [7] is more than 23.7 µM; in test [8], more than 100 µM; in test [9], 4.11 µM; in test [10], more than 100 µM.
On to `O=[N+]([O-])c1ccc2c(c1)C(c1ccccc1Cl)=Nc1c(n[nH]c1-c1cccnc1)N2`, for which the GI50 in [1] is more than 25 µM; in [2], more than 25 µM; in test [3] it was more than 20.3 µM; in test [4] it was more than 25 µM; in [5] it was more than 25 µM; in test [6], more than 25 µM. Besides, the GI50 in [7], in test [8], in [9] and in test [10] was more than 25 µM in each case. Besides, the TGI in test [1], in test [2], in test [3], in test [4], in test [5] and in [6] was more than 25 µM throughout. In addition, the TGI in [7], in [8], in test [9] and in test [10] was more than 25 µM in each case.
Take `CN(C)CCOc1ccccc1NC1=C(Cl)C(=O)C(Nc2ccccc2OCCN(C)C)=C(Cl)C1=O`: the GI50 in test [1] was 0.694 µM; in [2] it was 10.2 µM; in [3] it was more than 38.2 µM; in test [4], 5.12 µM; in test [5], 9.76 µM; in test [6], 9.84 µM. In addition, the GI50 was 39.1 µM in [7], more than 47.3 µM in [8], 0.658 µM in test [9] and 27.8 µM in [10]. In addition, the TGI in test [1] is 1.91 µM; in [2] it was more than 38.6 µM; in test [3] it was more than 53.8 µM; in test [4] it was more than 100 µM; in [5], 36.3 µM; in test [6] it was more than 31.8 µM. For the same compound, the TGI in [7] was more than 100 µM; in [8], more than 100 µM; in test [9], 2.06 µM; in test [10], more than 96.4 µM.
In the case of `O=c1oc2ccc(Br)cc2c(=O)n1-c1ccc(Cl)cc1F`, the GI50 is 1.7 µM in [1]; 3.84 µM in test [2]; 0.194 µM in test [3]; 0.798 µM in [4]; 0.917 µM in test [5]; 1.87 µM in [6]. In addition, the GI50 in test [7] was 2.17 µM; in [8] it was 2.9 µM; in [9], 1.12 µM; in test [10] it was 0.739 µM. Moreover, the TGI in test [1] was 5.22 µM; in test [2], more than 100 µM; in [3], 0.772 µM; in test [4], more than 100 µM; in test [5], 9.23 µM; in test [6], 7.81 µM. In addition, the TGI in [7] is 9.13 µM; in [8], more than 94.8 µM; in [9], 4.96 µM; in test [10], 10.7 µM.
In the case of `Cc1ccccc1C(C(=O)NC1CCCCC1)N(C(=O)CNc1ccc(C#N)cc1)c1cccc(F)c1` (configuration not stated), the GI50 is more than 100 µM in test [1]; 46.6 µM in test [2]; 24 µM in [3]; 16.9 µM in [4]; 16.6 µM in test [5]; 20.3 µM in [6]. The GI50 in test [7] was 3.51 µM; in test [8] it was 44 µM; in test [9], more than 70.5 µM; in test [10], 34.4 µM. Besides, the TGI is more than 100 µM in test [1]; more than 100 µM in test [2]; 74.4 µM in test [3]; 92.2 µM in test [4]; more than 100 µM in test [5]; more than 100 µM in [6]. Moreover, the TGI in test [7] is 14.4 µM; in test [8], more than 100 µM; in [9], more than 100 µM; in test [10], more than 100 µM.
As for `Cn1c(=O)c(Oc2ccc(F)cc2F)cc2cnc(NC3CCOCC3)nc21`, the GI50 is more than 25 µM in [1]; more than 25 µM in test [2]; 5 µM in [3]; more than 25 µM in test [4]; more than 25 µM in test [5]; more than 25 µM in [6]. Moreover, the GI50 in test [7], in test [8], in test [9] and in test [10] was more than 25 µM throughout. For the same compound, the TGI in test [1], in test [2], in test [3], in test [4], in test [5] and in test [6] was more than 25 µM each time. The TGI in test [7], in test [8], in test [9] and in test [10] was more than 25 µM throughout.
For `CC(=O)N[C@@H](Cc1ccc(OP(=O)(O)O)cc1)C(=O)N[C@H]1CCC(=O)N2CCC[C@@H](C(=O)NCc3ccccc3)N2C1=O`, the GI50 in test [1], in [2], in test [3], in test [4], in test [5] and in [6] was more than 25 µM throughout. For the same compound, the GI50 in [7], in test [8], in [9] and in test [10] was more than 25 µM each time. Also, the TGI in test [1], in [2], in test [3], in [4], in test [5] and in test [6] was more than 25 µM each time. In addition, the TGI in [7], in [8], in test [9] and in test [10] was more than 25 µM in each case.
